Experimental data reported in patent publication US12391683B2, “Therapeutic compounds and methods” (Actio Biosciences, Inc., priority 2022, dated 2025).

Legend:
TRPV6 channels = biological target: T1, TRPV6 channels (Homo sapiens, UniProt Q9H1D0); test: TRP Family FLIPR Assay, TRPV6; type: cell-based; settings: antagonist mode; activated with 0.9 mM calcium ion; HEK293 cells; 0.003-10 μM; read-out: IC50 hTRPV6
T1 construct: expressed in transfected cells; host or cells: HEK293
T1 sequence (Q9H1D0 1-765): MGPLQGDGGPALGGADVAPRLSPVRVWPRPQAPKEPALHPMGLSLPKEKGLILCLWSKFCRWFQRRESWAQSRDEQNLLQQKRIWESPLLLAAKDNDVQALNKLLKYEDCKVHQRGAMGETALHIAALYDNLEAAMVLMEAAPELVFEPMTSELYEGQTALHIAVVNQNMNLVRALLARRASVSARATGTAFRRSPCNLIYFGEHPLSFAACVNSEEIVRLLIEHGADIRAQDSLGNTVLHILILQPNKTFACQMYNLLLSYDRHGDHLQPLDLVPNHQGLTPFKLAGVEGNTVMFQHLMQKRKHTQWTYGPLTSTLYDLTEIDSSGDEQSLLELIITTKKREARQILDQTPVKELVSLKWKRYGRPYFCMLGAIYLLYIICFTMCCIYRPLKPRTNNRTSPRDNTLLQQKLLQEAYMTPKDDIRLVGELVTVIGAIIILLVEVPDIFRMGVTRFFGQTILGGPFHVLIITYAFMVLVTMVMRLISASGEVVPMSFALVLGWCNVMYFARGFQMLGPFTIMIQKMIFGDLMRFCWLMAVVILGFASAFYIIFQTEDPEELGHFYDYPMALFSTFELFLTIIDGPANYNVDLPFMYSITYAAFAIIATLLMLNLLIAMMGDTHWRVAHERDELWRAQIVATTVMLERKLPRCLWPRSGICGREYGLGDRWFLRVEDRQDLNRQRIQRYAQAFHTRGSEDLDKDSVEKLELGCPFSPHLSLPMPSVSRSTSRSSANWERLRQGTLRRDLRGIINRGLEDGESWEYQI
Experimental: The compound of Example 5 was tested for selectivity against a panel of Human TRP family ion channels in a TRP Family FLIPR Assay as described below. • 1. TRPC3 channels (human TRPC3 variant 1 gene, expressed in HEK293 cells). • 2. TRPC4 channels (human TRPC4 gene, expressed in HEK293 cells). • 3. TRPC5 channels (human TRPC5 gene, expressed in HEK293 cells). • 4. TRPC6 channels (human TRPC6 gene, expressed in HEK293 cells). • 5. TRPM2 channels (human TRPM2 gene, transiently expressed in HEK293 cells). • 6. TRPM3 channels (human TRPM3 gene, transiently expressed in HEK293 cells). • 7. TRPM4 channels (human TRPM4 gene, expressed in CHO cells). • 8. […]
Data acquisition was performed via the FLIPR Control software supplied with the FLIPR System (MDS-AT) and data was analyzed using Microsoft Excel (Microsoft Corp., Redmond, WA) or GraphPad Prism. […]
[formula] where Base is the response at low concentrations of test article, Max is the maximum response at high concentrations, xhalf the EC50, or IC50, the concentration of test article producing either half-maximal activation or inhibition, and rate is the Hill coefficient. […] No assumptions about the fit parameters was made; the fit parameters were determined by the algorithm.
The effect of each test article was evaluated at eight (8) concentrations: 0.003, 0.01, 0.03, 0.1, 0.3, 1, 3 and 10 μM, n≤4 wells/concentration). […]

Hepatocytes = Hepatocytes predicted clearance, cyno

How did the IC50 (TRPV6 channels) turn out when `CC(C)(O)c1cnc(N2C[C@@]3(CC[C@@H](F)[C@](C)(Cn4cnc5ccc(C#N)cc54)C3)OC2=O)cn1` (single isomer, unassigned) [Example 5] was run?
The IC50 was > 10 µM.

What about the “Hepatocytes predicted clearance in cyno” value (Hepatocytes) of the same compound?
The value was 1 mL/min/kg.
